This assay addresses human GLP-1R (Homo sapiens, UniProt P43220). Put plainly: GLP-1R Cell Assay 2: CHO-K1_hGLP-1Rlow_clone10 cells, LANCE Ultra cAMP TR-FRET assay. It is filed as cell-based. The arrangement: expressed in transfected cells. To be noted: Table 3, percent activation relative to control GLP-1 peptide agonist. The method, then: Stable cell lines expressing high and low GLP-1R surface expression were generated in CHO-K1 cells transfected (Fugene 6) with a puromycin selectable DNA plasmid encoding human GLP-1R receptor (accession number: NM_002062.5) under control of an EF1A promoter. Transfected cells were seeded into 24-well plates (9,000 cells/well) containing complete medium and incubated in a humidified incubator at 37° C. with 5% carbon dioxide. After overnight incubation, medium was replaced with complete medium supplemented with puromycin (6 μg/mL) and refreshed every 2-3 days to select for stably transfected cells. Individual pools of selected cells were expanded prior to analysis for responsiveness to GLP-1 control peptide using a TR-FRET assay to detect cAMP (LANCE Ultra cAMP Assay, Perkin Elmer). Briefly, cells were collected in Versene solution, plated in 384-well plates (1,000 cells/well) and combined with serially diluted GLP-1R control peptide (10 nL) using an acoustic dispenser (ECHO). Plates were incubated for 30 minutes at 25° C. prior to the addition of EU-cAMP tracer (5 μL) and Ulight-anti-cAMP (5 μL) reagents to each well, followed by 15 minutes incubation at 25° C. TR-FRET signal was detected using an EnVision Multimode Plate Reader (excitation=320 nm; emission=615 and 655 nm). Dose-response curves were used to generate EC50 values as a measure of responsiveness to the GLP-1R control peptide. Selected cell lines were monitored for responsiveness over multiple passages to ensure stability. […] Briefly, GLP-1R expression was analyzed by flow cytometry using a fluorescein-labeled Exendin-4 peptide fluorescent probe (FLEX). Cells were harvested in Versene solution and washed 3-times with PBS+0.5% BSA before incubation with FLEX reagent (10 μM) for 2 hours at room temperature. After incubation, cells were washed 3-times in PBS+0.5% BSA before final resuspension in PBS prior to analysis by flow cytometry to measure FLEX mean fluorescence intensity (MFI) as a measure of GLP-1R expression on the cell surface.
For compound testing in the CHO-K1_hGLP-1Rlow_clonel0 cell lines, cells were seeded in 384-well plates (1,000 cells/well). Test compounds were serially diluted in DMSO (10-point, 3-fold dilution), added to wells using an ECHO dispenser (10 nL/well) and plates were centrifuged for 1 min and agitated for 2 min at room temperature prior to 30-minute incubation at 25° C. After incubation, Eu-cAMP (5 p,L) and Ulight-anti-cAMP (5 μL) reagents were added to each well, followed by centrifugation for 1 minute, agitation for 2 minutes at room temperature, and final incubation of the plates at 25° C. for 15 minutes. Plates were read using an EnVision microplate reader (excitation=320 nm; emission=615 and 655 nm). Dose-response curves were generated from duplicate wells based on percent activation calculated relative to a control GLP-1 peptide agonist that was run in parallel. EC50 values were determined by fitting percent activation as a function of compound concentration using the Hill equation (XLfit).
(Time-resolved FRET reads energy transfer from a long-lived donor to a nearby acceptor.)
Sequence of human GLP-1R (P43220 24-463): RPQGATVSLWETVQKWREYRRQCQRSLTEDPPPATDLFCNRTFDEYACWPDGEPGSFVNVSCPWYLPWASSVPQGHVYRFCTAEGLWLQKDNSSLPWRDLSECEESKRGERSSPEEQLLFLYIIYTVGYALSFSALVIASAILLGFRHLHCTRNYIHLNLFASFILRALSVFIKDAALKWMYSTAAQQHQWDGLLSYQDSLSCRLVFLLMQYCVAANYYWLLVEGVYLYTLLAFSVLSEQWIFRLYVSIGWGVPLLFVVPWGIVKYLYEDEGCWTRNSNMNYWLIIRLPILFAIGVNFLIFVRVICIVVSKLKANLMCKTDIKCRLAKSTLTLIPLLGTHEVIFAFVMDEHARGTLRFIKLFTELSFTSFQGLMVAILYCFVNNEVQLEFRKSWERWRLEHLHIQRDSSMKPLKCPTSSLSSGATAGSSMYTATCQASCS
Regarding `CCn1cncc1Cn1c(CN2CC[C@]3(c4nccc(OCc5ccc(C#N)cc5F)n4)C[C@@H]3C2)nc2ccc(C(=O)O)cc21` [Compound 185-P2, 2-(((1S,6R)-6-(4-((4-cyano-2-fluorobenzyl)oxy)pyrimidin-2-yl)-3-azabicyclo[4.1.0]heptan-3-yl)methyl)-1-((1-ethyl-1H-imidazol-5-yl)methyl)-1H-benzo[d]imidazole-6-carboxylic acid], the EC50 (as a rule, the midpoint of the concentration-response curve) turned out to be 18.1 nM.
In turn, `CCn1cncc1Cn1c(CN2CC[C@]3(c4nccc(N5CCc6cc(C#N)cc(F)c6C5)n4)C[C@@H]3C2)nc2ccc(C(=O)O)cc21` (single isomer, unassigned) [Compound 186-P2] registered an EC50 of over 10000 nM.
The compound `CCn1cncc1Cn1c(CN2CC[C@@]3(c4nccc(OCc5ccc(C#N)cc5F)n4)C[C@H]3C2)nc2ccc(C(=O)O)cc21` [Compound 185-P1, 2-(((1R,6S)-6-(4-((4-cyano-2-fluorobenzyl)oxy)pyrimidin-2-yl)-3-azabicyclo[4.1.0]heptan-3-yl)methyl)-1-((1-ethyl-1H-imidazol-5-yl)methyl)-1H-benzo[d]imidazole-6-carboxylic acid] had an EC50 of 1.69 nM. This lies in the single-digit nanomolar range.
For `O=C(O)c1ccc2nc(CN3CCC(c4cccc(OCc5nc(C6CC6)cs5)n4)CC3)n(C[C@@H]3CCO3)c2c1` [Compound 181, (S)-2-((4-(6-((4-cyclopropylthiazol-2-yl)methoxy)pyridin-2-yl)piperidin-1-yl)methyl)-1-(oxetan-2-ylmethyl)-1H-benzo[d]imidazole-6-carboxylic acid], the EC50 worked out at 22.8 nM.
On to `O=C(O)c1ccc2nc(CN3CCC(c4cccc(OCc5csc6c(C(F)(F)F)cccc56)n4)CC3)n(C[C@@H]3CCO3)c2c1` [Compound 174, (S)-1-(oxetan-2-ylmethyl)-2-((4-(6-((7-(trifluoromethyl)benzo[b]thiophen-3-yl)methoxy)pyridin-2-yl)piperidin-1-yl)methyl)-1H-benzo[d]imidazole-6-carboxylic acid], for which the EC50 worked out at 63.4 nM.
Consider `CCn1cncc1Cn1c(CN2CCC(c3cccnc3OCc3ccc(C#N)cc3F)CC2)nc2ccc(C(=O)O)cc21` [Compound 169, 2-((4-(2-((4-cyano-2-fluorobenzyl)oxy)pyridin-3-yl)piperidin-1-yl)methyl)-1-((1-ethyl-1H-imidazol-5-yl)methyl)-1H-benzo[d]imidazole-6-carboxylic acid], for which it took 1.14 nM to reach a half-maximal effect (EC50). This EC50 is about 56-fold lower than that of the compound before.
Then `CCn1cccc1Cn1c(CN2CCC(c3cccc(OCc4nc5c(F)cc(C#N)cc5s4)n3)CC2)nc2ccc(C(=O)O)cc21` [Compound 180, 2-((4-(6-((6-cyano-4-fluorobenzo[d]thiazol-2-yl)methoxy)pyridin-2-yl)piperidin-1-yl)methyl)-1-((1-ethyl-1H-pyrrol-2-yl)methyl)-1H-benzo[d]imidazole-6-carboxylic acid], with 215 nM; and `CCn1nncc1Cn1c(CN2CCC(c3cccc(OCc4nc5c(F)cc(C#N)cc5s4)n3)CC2)nc2ccc(C(=O)O)cc21` [Compound 178, 2-((4-(6-((6-cyano-4-fluorobenzo[d]thiazol-2-yl)methoxy)pyridin-2-yl)piperidin-1-yl)methyl)-1-((1-ethyl-1H-1,2,3-triazol-5-yl)methyl)-1H-benzo[d]imidazole-6-carboxylic acid], with 7.56 nM; and `O=C(O)c1ccc2nc(CN3CCC(c4cccc(OCc5coc6c(C(F)(F)F)cc(Br)cc56)n4)CC3)n(C[C@@H]3CCO3)c2c1` [Compound 182, (S)-2-((4-(6-((5-bromo-7-(trifluoromethyl)benzofuran-3-yl)methoxy)pyridin-2-yl)piperidin-1-yl)methyl)-1-(oxetan-2-ylmethyl)-1H-benzo[d]imidazole-6-carboxylic acid], with 33.9 nM.
`CC1=NCC(Cn2c(CN3CCC(c4cccc(OCc5ccc(C#N)cc5F)n4)CC3)nc3ccc(C(=O)O)cc32)O1` (single isomer, unassigned) [Compound 176, 2-((4-(6-((4-cyano-2-fluorobenzyl)oxy)pyridin-2-yl)piperidin-1-yl)methyl)-1-((2-methyl-4,5-dihydrooxazol-5-yl)methyl)-1H-benzo[d]imidazole-6-carboxylic acid] yielded an EC50 of 1590 nM.
`CCn1cncc1Cn1c(CN2CC[C@@]3(c4nccc(N5CCc6cc(C#N)cc(F)c6C5)n4)C[C@H]3C2)nc2ccc(C(=O)O)cc21` [Compound 186-P1]: the EC50 was determined as 646 nM.
The compound `O=C(O)c1ccc2nc(CN3CCC(c4cccc(OCc5coc6c(C(F)(F)F)cccc56)n4)CC3)n(C[C@@H]3CCO3)c2c1` [Compound 175, (S)-1-(oxetan-2-ylmethyl)-2-((4-(6-((7-(trifluoromethyl)benzofuran-3-yl)methoxy)pyridin-2-yl)piperidin-1-yl)methyl)-1H-benzo[d]imidazole-6-carboxylic acid] returned an EC50 of 14.5 nM. Against the preceding compound, the EC50 is about 45-fold lower.
Then `N#Cc1cc(F)c2c(c1)CCN(c1cccc(C3CCN(Cc4nc5ccc(C(=O)O)cc5n4Cc4ncco4)CC3)n1)C2` [Compound 172, 2-((4-(6-(6-cyano-8-fluoro-3,4-dihydroisoquinolin-2(1H)-yl)pyridin-2-yl)piperidin-1-yl)methyl)-1-(oxazol-2-ylmethyl)-1H-benzo[d]imidazole-6-carboxylic acid], with 119 nM.

Source of the values: patent publication US20220089578A1, “COMPOUNDS AS GLP-1R AGONISTS” (Terns Pharmaceuticals, Inc., priority 2020, published 2022).
